Measurements taken from patent publication US20240124528A1, “ANTAGONIST OF INTERLEUKIN-17B RECEPTOR (IL-17RB) AND USE THEREOF” (Academia Sinica, priority 2020, published 2024).

Experiments:
[1] = molecular target: T1, interaction between IL-17RB and MLK4 (Homo sapiens, UniProt Q5TCX8); assay: Co-immunoprecipitation of IL-17RB and MLK4 after peptide pretreatment and rIL-17B; assay type: cell-based; conditions: 293T cells expressing Flag-MLK4 and HA-IL-17RB; peptides 0, 0.1, 1, 10, 50, 100 ng/ml for 30 mins, then rIL-17B 30 mins
T1 construct: host or cells: 293T (HEK293T)
T1 sequence (Q5TCX8 whole entry): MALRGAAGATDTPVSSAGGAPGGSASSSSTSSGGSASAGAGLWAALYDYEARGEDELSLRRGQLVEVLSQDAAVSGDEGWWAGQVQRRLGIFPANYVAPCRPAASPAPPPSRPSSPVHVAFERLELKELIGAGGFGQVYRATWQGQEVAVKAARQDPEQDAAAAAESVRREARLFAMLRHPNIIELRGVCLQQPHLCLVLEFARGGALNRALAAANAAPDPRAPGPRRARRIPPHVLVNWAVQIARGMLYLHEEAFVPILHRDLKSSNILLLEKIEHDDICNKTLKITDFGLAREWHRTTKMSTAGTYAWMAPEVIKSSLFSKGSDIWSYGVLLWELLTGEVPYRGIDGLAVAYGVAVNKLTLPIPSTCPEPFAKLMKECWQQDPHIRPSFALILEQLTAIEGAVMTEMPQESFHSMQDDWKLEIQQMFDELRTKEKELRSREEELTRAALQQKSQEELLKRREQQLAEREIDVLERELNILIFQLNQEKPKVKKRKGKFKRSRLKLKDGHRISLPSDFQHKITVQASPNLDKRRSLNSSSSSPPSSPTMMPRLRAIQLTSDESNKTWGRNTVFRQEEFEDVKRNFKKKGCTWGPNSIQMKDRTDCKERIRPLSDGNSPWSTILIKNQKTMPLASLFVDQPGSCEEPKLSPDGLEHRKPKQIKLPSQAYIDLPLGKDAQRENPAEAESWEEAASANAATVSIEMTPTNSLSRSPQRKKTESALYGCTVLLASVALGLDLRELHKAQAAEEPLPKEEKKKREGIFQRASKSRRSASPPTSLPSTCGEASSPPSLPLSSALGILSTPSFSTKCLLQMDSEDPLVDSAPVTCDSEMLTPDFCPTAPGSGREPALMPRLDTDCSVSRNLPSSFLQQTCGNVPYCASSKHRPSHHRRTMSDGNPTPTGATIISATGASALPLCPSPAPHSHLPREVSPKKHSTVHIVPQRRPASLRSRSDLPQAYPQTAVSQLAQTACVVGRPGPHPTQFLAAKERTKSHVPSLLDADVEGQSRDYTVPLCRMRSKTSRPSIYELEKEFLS
Excerpt: FIGS. 7A to 7J include charts showing that disruption of the interaction between IL-17RB and MLK4 by the loop peptide blocks oncogenic progression. (FIG. 7A) Peptides TAT48-57 (Control) (SEQ ID NO: 21) and TAT-IL-17RB403-416 (Loop) (SEQ ID NO: 30) used for the following experiments. (FIG. 7B) Immunoblotting analysis of IL-17RB binding to MLK4 with Loop peptide treatment. 293T cells expressing Flag-MLK4 and HA-IL-17RB were pretreated with the control and loop peptides with different dose (0, 0.1, 1, 10, 50, 100 ng/ml) for 30 mins, and then added rIL-17B for 30 mins. The cell lysates were reciprocally co-immunoprecipitated with anti-Flag and anti-HA and blotted with the indicated antibodies or directly immunoblotted with the indicated antibodies as the input controls. […] CCL20 and TFF/mRNA expression of these cells were measured by RT-qPCR (n=3) (FIG. 7D), the same cells were for invasion assay (n=4) (FIG. 7E) and SACF assay (n=4) (FIG. 7F). […] (FIG. 7I) The experimental EKP mice (n=7 for each group) were euthanized at Day 56, and the metastatic tumor nodules in the lungs were counted. […]
Whole-cell lysates were prepared as previously described (6, 7). […] After extensive washing with diluted lysis buffer (0.01% Triton X-100), IL-17RB and its associated proteins were analyzed by immunoblotting analysis. […]

IL-17RB = assay: Immunoblotting/IP of IL-17B-induced IL-17RB signaling in CFPAC1 cells after peptide pretreatment; assay type: cell-based, human; conditions: CFPAC1 cells pretreated with peptides 30 mins, then rIL-17B 30 mins
Excerpt: FIGS. 7A to 7J include charts showing that disruption of the interaction between IL-17RB and MLK4 by the loop peptide blocks oncogenic progression. (FIG. 7A) Peptides TAT48-57 (Control) (SEQ ID NO: 21) and TAT-IL-17RB403-416 (Loop) (SEQ ID NO: 30) used for the following experiments. (FIG. 7B) Immunoblotting analysis of IL-17RB binding to MLK4 with Loop peptide treatment. 293T cells expressing Flag-MLK4 and HA-IL-17RB were pretreated with the control and loop peptides with different dose (0, 0.1, 1, 10, 50, 100 ng/ml) for 30 mins, and then added rIL-17B for 30 mins. The cell lysates were reciprocally co-immunoprecipitated with anti-Flag and anti-HA and blotted with the indicated antibodies or directly immunoblotted with the indicated antibodies as the input controls. (FIG. 7C to FIG. 7F) CFPAC1cells were pretreated with the peptides for 30 mins and then added rIL-17B for 30 mins. The cell lysates were immunoblotted with the indicated antibodies or immunoprecipitated with anti-IL-17RB or control IgG and blotted with the indicated antibodies (FIG. 7C). CFPAC1 cells were pretreated with TAT48-57 or TAT-IL-17RB403-416 (50 ng/ml) 30 mins and then added rIL-17B for two hrs. CCL20 and TFF/mRNA expression of these cells were measured by RT-qPCR (n=3) (FIG. 7D), the same cells were for invasion assay (n=4) (FIG. 7E) and SACF assay (n=4) (FIG. 7F). (FIG. 7G) The scheme of the treatment of transgenic pancreatic cancer EKP mice (LSL-Kras^+/G12D; p53^+/−; Ela-Cre^ERT; plus cerulein) with the Loop peptides. (FIG. 7H) IHC images of pancreases stained with anti-P-Y447 antibody. Scale bars: 50 μm. The pancreas tissues were from EKP mice after treated with the control or loop peptides at Day 42. The Kras^+/+ mice (Kras^+/+; p53^+/−; Ela-Cre^ERT; plus cerulein) were used as the non-cancerous control. Boxes indicate the enlarged areas. (FIG. 7I) The experimental EKP mice (n=7 for each group) were euthanized at Day 56, and the metastatic tumor nodules in the lungs were counted. (FIG. 7J) Kaplan-Meier survival curve plot of the lifespans of the experimental EKP mice (n=7 for each group). […]

## RKKRRQRRRVCDGTCGKSEGSPS (IL-17RB inhibitory peptide, fusion protein) [loop peptide]
[1]
  interaction between IL-17RB and MLK4 (co-IP): disrupted
IL-17RB
  ERK1/2 phosphorylation induced by IL-17B: abolished
  tyrosine phosphorylation of IL-17RB induced by IL-17B: abolished
  ubiquitination of IL-17RB induced by IL-17B: abolished
